Measurements taken from patent US20110028401A1, “CRIPTO BLOCKING MOLECULES AND THERAPEUTIC USES THEREOF” (CONSIGLIO NAZIONALE DELLE RICERCHE, priority 2009, published 2011).

Experiments:
Cripto/ALK-4 interaction = biological target: T1, Cripto/ALK-4 interaction (Mus musculus, UniProt P51865); experiment: ELISA-based competition assay of Cripto/ALK-4 interaction; type: binding
T1 construct: the displacement of soluble recombinant Cripto from coated ALK-4 by the peptide pools was evaluated
Description: To improve the overall solubility of the resulting mixtures, D-Glutamic (D-Glu), corresponding to building block 4 (Table S1) was initially chosen as the common, N-terminal residue. The total complexity of the library was therefore of 30^2=900 different peptides. In the first step of, the deconvolution process, the peptide pools were tested with a molar excess of 30000-fold (calculated for each single peptide) over Cripto (8.6×10^−10 M; FIG. 2. S1). Once identified an active pool(s), a dose-dependent inhibition using 200-, 500-, 1000-, 5000-, 12500 and 30000 fold excess was performed to confirm the inhibitory property (FIG. 3. S2). The first active pool selected was that labelled as 4-23-X (X indicated random positions), where “23” identified the amino acid L-Cysteine(S-benzyl) [L-Cys(Bzl)] (FIG. 3. S2). […] To finally investigate the N-terminal position, where D-Glu was initially arbitrarily placed, 30 single peptides labelled as B-23-23 were synthesized and submitted to the final screening (FIG. 5. S4 (a)). […]
The screening was performed by an ELISA (Enzime-Linked Immunosorbent Assay) assay. […] Finally, the plate was developed with o-phenylendiammine peroxidase substrate (Sigma-Aldrich) and the absorbance was read at 490 nm on a microplate reader (Biorad Benchmark). […]

[1] = test system: Cripto-induced Smad2 phosphorylation; experiment: Smad2 phosphorylation assay (Western blot) in cripto-/- embryoid bodies; type: cell-based, mouse
Description: Two day-old cripto^−/− Embryoid Bodies (EBs) were serum starved for 3 hrs in DMEM (GIBCO) without LIF and in low serum (0.5% FBS). Following starvation, EBs were incubated for 20 min at 37° C. with recombinant Cripto protein (0.5 µg/ml) either alone or in the presence of the indicated amount of peptides. Finally, EBs were dissolved in Laemmli lysis buffer and analyzed by Western blot using the Trans-Blot Semi-dry System (BIO-RAD), following manufacturer's instruction. Anti-Smad2 and anti-phospho-Smad2 (Ser465/467) Antibodies (Cell Signalling Technology) were used, following the manufacturer's instructions.

wild-type EBs = experiment: QRT-PCR of cardiac and neuronal markers in EBs; type: cell-based, mouse; settings: 25 μM peptide, 13 day-old EBs
Description: Total RNAs from 13 day-old EBs was extracted with TRIzol kit (Life Technologies Inc.) according to manufacturer's instructions. One microgram of total RNA was used for cDNA synthesis with SuperScript II reverse transcriptase (Life Technologies Inc.) and random hexamers. Quantitative Real time PCR was performed using SYBR Green PCR master mix (EuroClone), according to manufacturer's instructions. The primers used are described in Table S2.

ALK-4 receptor = biological target: T2, ALK-4 receptor (Homo sapiens, UniProt P36896); experiment: ELISA binding of ALK-4 receptor to plate-coated peptide; settings: peptide coated at 50 μM; ALK-4 50 to 200 ng/ml
T2 construct: the extracellular domain of ALK-4 receptor fused to human Fc (R&D Systems); purchased R&D Systems
T2 sequence (P36896 24-126 limits assumed): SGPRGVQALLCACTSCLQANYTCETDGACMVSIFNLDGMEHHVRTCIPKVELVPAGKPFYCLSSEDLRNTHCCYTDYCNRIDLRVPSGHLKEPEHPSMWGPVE
Description: To evaluate the binding of Cripto BP to either Cripto or ALK-4 receptor, BP or control peptides (CP; 50 μM) were coated on the surface of a 96-well microtiter plate and incubated over night at 4° C. Wells were washed five times with PBS Tween (PBT) and the aspecific sites blocked for 3 h at RT with 1% Bovine Serum Albumin (BSA) in PBS, 180 μL/well. Wells were washed as above, and the recombinant form of either ALK-4-humanFc chimeric receptor or Cripto protein in PBT were added at the indicated concentrations and incubated for 1 h at 37° C. followed by 1 hr at RT. After washing with PBT, to evaluate the binding of Cripto to 26-23-23, rabbit anti-Cripto IgG (6 μg/ml) were added to the plates and incubated 1 h at 37° C. and 1 hr at RT. After washing in PBT, a goat anti-rabbit […] (Santa Crutz) was added to the plate (0.3 μg/ml) and incubated 1 h at RT. Finally, the plate was developed as reported above. To evaluate the binding of ALK4 to 26-23-23, the extracellular domain of ALK-4 receptor fused to human Fc (R&D Systems) was added at the indicated concentrations and a goat anti-human Fc (Jackson ImmunoResearch; 1:1000) was used.

T1 sequence (P51865 18-156 limits assumed): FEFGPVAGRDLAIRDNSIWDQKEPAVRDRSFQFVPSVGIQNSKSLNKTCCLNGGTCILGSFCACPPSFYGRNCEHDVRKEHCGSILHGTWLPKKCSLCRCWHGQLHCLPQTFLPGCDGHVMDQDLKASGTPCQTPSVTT

C[S+]([O-])CCC(N)C(=O)N[C@@H](CSCc1ccccc1)C(=O)N[C@@H](CSCc1ccccc1)C(=O)N[C@@H](CCCCNC(=O)[C@H](CSCc1ccccc1)NC(=O)[C@H](CSCc1ccccc1)NC(=O)[C@@H](N)CC[S+](C)[O-])C(=O)N[C@@H](CCCCNC(=O)[C@H](CCCCNC(=O)[C@H](CSCc1ccccc1)NC(=O)[C@H](CSCc1ccccc1)NC(=O)[C@@H](N)CC[S+](C)[O-])NC(=O)[C@H](CSCc1ccccc1)NC(=O)[C@H](CSCc1ccccc1)NC(=O)[C@@H](N)CC[S+](C)[O-])C(=O)NCC(=O)O (some centres unmarked) [Cripto BP]
inhibitory activity in final library screening (Cripto/ALK-4 interaction; 30 single peptides B-23-23, 500- to 4000-fold excess, confirmed with HPLC purified molecule): optimal inhibitory activity
IC50 (Cripto/ALK-4 interaction; estimated, ELISA competition, FIG. 1b, read-out: IC50 for blocking the interaction of Cripto and ALK-4): 400 nM
effect on Cripto-induced Smad2 phosphorylation ([1]; 2 day-old cripto−/− EBs, Cripto 0.5 μg/ml, peptide 2.5 μM and 25 μM): inhibited
effect on Cripto-induced Smad2 phosphorylation ([1]; peptide 25 μM (125× molar excess)): completely blocked
expression of cardiac specific marker MLc2v (wild-type EBs): reduced
expression of midbrain dopaminergic neuron markers (Pitx3, Wnt5a, Shh, TH, DAT) (wild-type EBs): showed expression of markers characteristic of developing midbrain dopaminergic neurons
expression of pan neuronal marker NFM (wild-type EBs): induced
binding of ALK-4 receptor to immobilized peptide (ALK-4 receptor): not ALK-4 specifically recognized
